Assay: molar heat capacity at constant pressure
Settings: 101.33 kPa, Small sample (50 mg) DSC

CCCCCC[n+]1cccc2ccccc21.O=S(=O)([N-]S(=O)(=O)C(F)(F)F)C(F)(F)F [1-hexylquinolinium bis(trifluoromethylsulfonyl)amide]
Settings | molar heat capacity at constant pressure [J/K/mol]
283.12 K, Crystal | 420.81
283.72 K, Crystal | 421.99
284.32 K, Crystal | 423.19
284.92 K, Crystal | 424.39
285.52 K, Crystal | 425.58
286.12 K, Crystal | 426.78
286.72 K, Crystal | 427.94
287.32 K, Crystal | 429.07
287.92 K, Crystal | 430.21
288.52 K, Crystal | 431.37
289.12 K, Crystal | 432.53
289.72 K, Crystal | 433.71
290.32 K, Crystal | 434.96
290.92 K, Crystal | 436.29
291.52 K, Crystal | 437.63
292.12 K, Crystal | 439.04
292.72 K, Crystal | 440.54
293.32 K, Crystal | 442.04
293.92 K, Crystal | 443.6
294.52 K, Crystal | 445.19
295.12 K, Crystal | 446.81
295.72 K, Crystal | 448.46
296.32 K, Crystal | 450.18
296.92 K, Crystal | 451.92
297.52 K, Crystal | 453.71
298.12 K, Crystal | 455.57
298.72 K, Crystal | 457.56
299.32 K, Crystal | 459.55
299.92 K, Crystal | 461.52
300.52 K, Crystal | 463.69
301.12 K, Crystal | 465.97
301.72 K, Crystal | 468.26
302.32 K, Crystal | 470.81
302.92 K, Crystal | 473.57
303.52 K, Crystal | 476.39
304.12 K, Crystal | 479.52
304.73 K, Crystal | 483.2
305.33 K, Crystal | 487.13
305.93 K, Crystal | 491.57
306.53 K, Crystal | 497.37
307.13 K, Crystal | 504.13
307.72 K, Crystal | 510.47
308.32 K, Crystal | 518.68
308.92 K, Crystal | 531.59
309.52 K, Crystal | 546.05
310.12 K, Crystal | 573.74
310.72 K, Crystal | 653.81
311.32 K, Crystal | 795.64
311.92 K, Crystal | 921.44
312.51 K, Crystal | 1266.8
313.09 K, Crystal | 2288.5
313.66 K, Crystal | 3477.3
314.23 K, Crystal | 4856
314.8 K, Crystal | 6301.5
315.37 K, Crystal | 7631.8
315.94 K, Crystal | 9002.3
316.54 K, Crystal | 9157.6
317.17 K, Liquid | 7971.7
317.8 K, Liquid | 6765.5
318.43 K, Liquid | 5315.4
319.06 K, Liquid | 3937.3
319.69 K, Liquid | 2716.7
320.31 K, Liquid | 1646.2
320.92 K, Liquid | 1124.2
321.52 K, Liquid | 783.96
322.12 K, Liquid | 605.73
322.72 K, Liquid | 578.47
323.33 K, Liquid | 579.09
323.93 K, Liquid | 579.53
324.53 K, Liquid | 579.5
325.13 K, Liquid | 579.81
325.73 K, Liquid | 580.31
326.33 K, Liquid | 580.35
326.93 K, Liquid | 580.48
327.53 K, Liquid | 580.91
329.93 K, Liquid | 582.05
330.53 K, Liquid | 582.3
331.13 K, Liquid | 582.61
331.73 K, Liquid | 582.85
332.33 K, Liquid | 583.14
332.93 K, Liquid | 583.5
333.53 K, Liquid | 583.82
334.13 K, Liquid | 584.2
334.73 K, Liquid | 584.61
335.33 K, Liquid | 585.06
335.93 K, Liquid | 585.62
336.53 K, Liquid | 586.11
337.13 K, Liquid | 586.52
337.73 K, Liquid | 586.92
338.33 K, Liquid | 587.33
338.93 K, Liquid | 587.69
339.53 K, Liquid | 587.94
340.13 K, Liquid | 588.08
340.73 K, Liquid | 588.35
341.33 K, Liquid | 588.62
341.93 K, Liquid | 588.83
342.54 K, Liquid | 589.03
343.13 K, Liquid | 589.23
343.73 K, Liquid | 589.47
344.33 K, Liquid | 589.68
344.93 K, Liquid | 589.8
345.53 K, Liquid | 589.91
346.13 K, Liquid | 590.01
346.73 K, Liquid | 590.17
347.33 K, Liquid | 590.33
347.93 K, Liquid | 590.52
348.53 K, Liquid | 590.79
349.13 K, Liquid | 591.11
349.73 K, Liquid | 591.46
350.33 K, Liquid | 591.81
350.93 K, Liquid | 592.11
351.53 K, Liquid | 592.4
352.13 K, Liquid | 592.64
352.73 K, Liquid | 592.89
353.33 K, Liquid | 593.12
353.93 K, Liquid | 593.32
354.53 K, Liquid | 593.58
355.13 K, Liquid | 593.86
355.73 K, Liquid | 594.11
356.33 K, Liquid | 594.37
356.93 K, Liquid | 594.62
357.53 K, Liquid | 594.9
358.13 K, Liquid | 595.2
358.73 K, Liquid | 595.42
359.33 K, Liquid | 595.58
359.93 K, Liquid | 595.78
360.53 K, Liquid | 595.96
361.13 K, Liquid | 596.12
361.73 K, Liquid | 596.19
362.33 K, Liquid | 596.29
362.93 K, Liquid | 596.51
363.53 K, Liquid | 596.79
364.13 K, Liquid | 597.06
364.73 K, Liquid | 597.35
365.33 K, Liquid | 597.68
365.93 K, Liquid | 598.06
366.53 K, Liquid | 598.36
367.13 K, Liquid | 598.59
367.73 K, Liquid | 598.82
368.33 K, Liquid | 599
368.93 K, Liquid | 599.12
369.53 K, Liquid | 599.24
370.13 K, Liquid | 599.38
